Tests used:
WSN-Ren virus [1] = assay type: cell-based, influenza A/WSN/33 virus
influenza A/WSN/33 virus [2] = assay type: cell-based
influenza A/WSN/33 virus [3] = assay: Small molecule inhibition of virus growth in A549 cells, plaque assay; assay type: cell-based
WSN-Ren virus [4] = assay type: cell-based, influenza A/WSN/33 virus; remark: listed apart in the source
[5] = tested on: pseudotyped lentivirus particles bearing influenza virus HA (WSN); assay type: cell-based
influenza virus = assay type: cell-based

O=c1[nH]c2ccccc2c(O)c1-c1nc2ccccc2[nH]1 [FGF/VEGF Receptor Inhibitor, 4-Hydroxy-3-benzimidazol-2-ylhydroquinolin-2-one]
WSN-Ren virus growth (WSN-Ren virus [1]): reduce influenza virus growth

COc1ccc(S(=O)(=O)N(CCO)c2ccccc2CN(C)C/C=C/c2ccc(Cl)cc2)cc1 [KN-93]
A/WSN/33 influenza viral replication (viral titers) (influenza A/WSN/33 virus [2]): inhibits A/WSN/33 influenza viral replication in a dose-dependent manner
influenza virus growth by plaque assay (influenza A/WSN/33 virus [3]; 20 μM): impairs influenza virus growth
cell viability (ATP levels) (MDCK cells): without affecting cell viability

HIST3H3 (guide TGAGAGGTTGCGCAACGTTCA; target site or template, no part of the molecule; target sequence, further chemistry not given here)
Avg Score 12 h (WSN-Ren virus [4]): 0.6254
Avg Score 24 h (WSN-Ren virus [4]): 0.5921
Avg Score 36 h (WSN-Ren virus [4]): 0.4817

COc1cc([C@@H]2c3cc4c(cc3[C@H](O)[C@H]3COC(=O)[C@H]23)OCO4)cc(OC)c1OC [Podophyllotoxin]
WSN-Ren virus growth (WSN-Ren virus [1]): reduce influenza virus growth

COc1cc2c(O)c3c(c(-c4ccc5c(c4)OCO5)c2cc1OC)C(=O)OC3 [Diphyllin]
influenza virus entry [5]: inhibits influenza virus entry
inhibition of influenza A/WSN/33 virus (influenza A/WSN/33 virus [3]; A549 cells, MOI=1, FIG. 8b): Dose-dependent inhibition
influenza virus inhibitory activity in high-throughput screen (influenza virus): having influenza virus inhibitory activity

CCc1cc(-c2n[nH]c(C)c2-c2ccc3c(c2)OCCO3)c(O)cc1O [CCT018159, 4-(4-(2,3-Dihydro-1,4-benzodioxin-6-yl)-5-methyl-1H-pyrazol-3-yl)-6-ethylresorcinol]
WSN-Ren virus growth (WSN-Ren virus [1]): reduce influenza virus growth

From patent publication US9238815B2 (priority 2009, dated 2016)
